We go through one substance from patent publication US7374944B2, “Device and bioanalytical method utilizing asymmetric biofunctionalized membrane” (Purdue Research Foundation, priority 2001, dated 2008).

Assay [1] can be described thus: Impedance measurements of supported bolalipid membranes on Au electrodes. As to the method: The effect of GA surface density on supported membrane impedance was determined using electrodes that had been coated with supported bolalipids by pretreatment with 2 prior to immersion for 24 hours into sonicated 1-GA vesicles containing varying amounts of GA. The 1-GA vesicle dispersions were prepared by sonicating dry 1-GA films in water (nominal GA:bolalipid molar ratios ranging from 1:500-1:50; 2 mM total lipid concentration). […] This observation is consistent with ^23Na NMR ion flux measurements made previously in our laboratory for gramicidin-containing 1 vesicles.
The effects of gramicidin loading on supported bolalipid membrane electrode impedance was further investigated in a sequential deposition experiment (FIG. 10). Adsorption of 2 onto Au electrodes for 1 hour to give partial surface coverage produced significant increases in impedance. Immersion of these pretreated electrodes into bolalipid vesicle solutions where gramicidin was either absent or present (i.e. 1 and 1-GA vesicles, respectively) produced membrane coated electrodes that had substantially different impedance characteristics in 10^−1-10^2 Hz frequency range. […]

The nature of assay [2]: Capacitance and single channel measurements of C20 bolalipid membranes. Particulars: C20 bolalipid monolayer.

As to gramicidin, the “impedance of 2-treated electrode after immersion in 1-GA membrane solution” value in assay [1] (1:100 molar ratio GA:1, 24 hours, compared with 2 or 2-1 coatings) is “observed impedances were lower”. Also, the “effect of GA surface density on supported membrane impedance” value in assay [1] (GA:bolalipid molar ratios 1:500-1:50, 1-10^3 Hz range) is given as “impedance decreases with increasing GA concentration”. Further, the “ion flux across the membrane” value in assay [2] is reported as “resulted in ion flux across the membrane”.
